Measurements reported in patent publication EP0721774A2, “Anti-microbial compositions” (UNILEVER N.V., priority 1994, dated 1996).

Assays:
Actinomyces = assay: Minimum inhibitory concentration (MIC), spot dilution on lawned SDM agar plates; type: cell-based
Protocol: (§1) The minimum inhibitory concentrations (MICs) of these peptides were determined as follows: Organisms were subcultured from BHIS agar into BHI broth and incubated at 37°C for 2 days. They were then diluted 1/100 in fresh broth and flooded onto pre-dried SDM agar plates. Excess culture was removed by pipetting. Plates were then allowed to dry at room temperature. The various synthesised peptides were dissolved in sterile water at a concentration of 1 %. Doubling dilutions, in water, were carried out down to 0.03 %. 15 µl of each dilution was spotted onto the lawned cultures, allowed to dry and then the plates were incubated at 37°C for 2 days. Plates were then read for zones of inhibition. The MIC was taken as the lowest dilution still causing visible growth inhibition.
(§2) All organisms were routinely grown on supplemented Brain Heart Infusion agar (Difco) and when appropriate subcultured into Brain Hearth Infusion broth (Difco). For MIC assays a chemically defined solid medium (SDM) was used^(5).
Actinomyces 12/2, 69A and 41A were plaque isolates from oral ecology studies.

S.salivarius = assay: as above; type: cell-based, Steptococcus salivarius
Protocol: as §1, §2
Steptococcus salivarius strans were all wild plaque isolates from oral ecology studies.

C. albicans = details: compared among histatins -1, -3 and -5; cited from earlier work
Candida = assay: Minimum inhibitory concentration (MIC), spot dilution on lawned SDM agar plates; type: cell-based
Protocol: as §1, §2
Candida strains 83 and 41 were isolated from oral ecology studies.

S.mutans = assay: as above; type: cell-based, Streptococcus mutans
Protocol: as §1, §2
The organisms used were the following: Streptococcus mutans strains were clinical isolates, from the plaque of panellists in oral ecology studies. […] SM11060 belonged to serotype f and SM10919 belonged to serotype g. Strain SMB13 (serotype d) was supplied by PHLS, Porton Down.

Lactobacilli = assay: as above; type: cell-based
Protocol: as §1, §2
Lactobacilli were from the in house Colworth Microbial Culture Collection. SB115 and SB116 were L.casei var. rhamnosus, SB82 had been classified as L.plantarum, SB83 and SB85 were Lactobacillus sp. and SB 9 was L.casei.

S.sanguis = assay: as above; type: cell-based, Streptococcus sanguis
Protocol: as §1, §2
Streptococcus sanguis strains were all clinical isolates from the plaque of panellists in ongoing oral ecology studies.

Histatin-5
MIC (Actinomyces; strain 10A): 1.0% | MIC (Actinomyces; strain 11A): 0.5% | MIC (Actinomyces; strain 16A): growth stimulated | MIC (Actinomyces; strain 41A): 1.0% | MIC (Actinomyces; strain 69A): growth stimulated | MIC (Actinomyces; strain 71A): 0.5% | MIC (S.salivarius; strain 2/7): growth stimulated | MIC (S.salivarius; strain 2/27): growth stimulated | MIC (S.salivarius; strain 14/9): growth stimulated | ability to kill the pathogenic yeast C. albicans (C. albicans): most effective | MIC (Candida; strain 41): >1.0% | MIC (Candida; strain 83): >1.0% | MIC (S.mutans; strain SM1dg): 1.0% | MIC (S.mutans; strain SM24dg): 1.0% | MIC (S.mutans; strain SM28B): 1.0% | MIC (S.mutans; strain SM44A): 0.5% | MIC (S.mutans; strain SM84C): 1.0% | MIC (S.mutans; strain SM148dg): 0.5% | MIC (S.mutans; strain SM189): 0.5% | MIC (S.mutans; strain SM211): 0.25% | MIC (S.mutans; strain SM6715): 0.5% | MIC (S.mutans; strain SM10449): 0.25% | MIC (S.mutans; strain SMNW1): 1.0% | MIC (S.mutans; strain SMNW6): 1.0% | MIC (S.mutans; strain SMNW10): 0.5% | MIC (Lactobacilli; strain SB9 (L.casei)): 1.0% | MIC (Lactobacilli; strain SB81): 0.125% | MIC (Lactobacilli; strain SB82 (L.plantarum)): 0.125% | MIC (Lactobacilli; strain SB116 (L.casei var. rhamnosus)): 1.5% | MIC (S.sanguis; strain 6/9): growth stimulated | MIC (S.sanguis; strain 10/23): growth stimulated | MIC (S.sanguis; strain SS209): growth stimulated
